Test results reported in PMC6894422 (Journal of the American Chemical Society, 2019).

Key:
[1] = test system: MERTK phosphorylation in 697 ALL cells; assay: pMERTK assay
[2] = test system: kinome (222 kinases quantified) in NOMO-1 human AML cells; assay: MIB-MS kinome profiling; format: cell-based; settings: NOMO-1 cells, 100 nM, one hour
A549 NSCLC cells = assay: colony formation in soft agar; format: cell-based; settings: A549, 300 nM, 14 days
NOMO-1 AML cells [3] = assay: cell death by PoPro-1-iodide/propidium iodide flow cytometry; settings: NOMO-1, 300 nM, 72 hours
Kasumi-1 AML cells = assay: as above; format: cell-based; settings: Kasumi-1, 300 nM, 72 hours
OCI-AML5 AML cells = assay: colony formation in soft agar; format: cell-based
[4] = pharmacokinetic study in mice; format: in vivo
COLO-699 NSCLC cells = assay: colony formation in soft agar; format: cell-based; settings: 14 days
[5] = test system: AXL phosphorylation in A549 NSCLC cells; assay: pAXL assay
NOMO-1 AML cells [6] = assay: colony formation in soft agar; format: cell-based, human; settings: NOMO-1, 300 nM

Compound: CC(C)C(=O)Nc1ccnc(C#Cc2ccc(Nc3ncc(-c4ccccn4)c(NC4CCC(O)CC4)n3)cc2)c1 (centres unmarked) [Compound 10]
- inhibition of pMERTK at higher concentrations ([1]; higher concentrations of 10): Near complete inhibition
- IC50 ([1]; read-out: IC50 (MERTK phosphorylation), 697 ALL cells, 1 hour, 95% confidence interval = 16–52 nM): 28 nM
- number of kinases with lower enrichment on the beads compared to DMSO control ([2]; 222 kinases quantified): 27 kinases
- number of kinases significantly decreased ([2]; p < 0.05 and log2 ratio 10/control ≥ 2): 8 kinases
- reduction in colony number (A549 NSCLC cells): 60–75%
- tumor cell death (% of cells) (NOMO-1 AML cells [3]): 41%
- tumor cell death (% of cells) (Kasumi-1 AML cells): 67%
- reduction in colony number (OCI-AML5 AML cells; OCI-AML5, 50 nM): 70%
- colony formation (OCI-AML5 AML cells; OCI-AML5, 300 nM): complete abrogation of colony formation
- oral bioavailability ([4]; p.o.): weak oral bioavailability
- Cmax ([4]; plasma, via i.p. route): 435 ng/mL
- T1/2 ([4]; plasma, via i.p. route): 4.97 h
- reduction in colony number (COLO-699 NSCLC cells; COLO-699, 50 nM): 70%
- colony formation (COLO-699 NSCLC cells; COLO-699, 300 nM): complete abrogation of colony formation
- inhibition of pAXL at higher concentrations ([5]; higher concentrations of 10): Near complete inhibition
- IC50 ([5]; read-out: IC50 (AXL phosphorylation), A549 NSCLC cells, 1 hour, 95% confidence interval = 18–57 nM): 32 nM
- reduction in colony number (NOMO-1 AML cells [6]): 60–75%
